Test systems include UO-31 renal; HL-60(TB) leukemia; MOLT-4 leukemia; SK-MEL-2 melanoma; OVCAR-5 ovarian; M14 melanoma; MDA-N; PC-3 prostate; MDA-MB-231 breast; MDA-MB-435.
Experiment in all cases: DTP human tumour cell line panel, 48 h

SMILES strings stand for the structures.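 Growth conditions: 96-well plates. Treatment: test compound, 48 hours, 5 concentrations. Analysis: linear interpolation between bracketing concentrations; unreached endpoints set to highest concentration. GI50 marks 50% less growth. TGI denotes the concentration required for complete inhibition of growth.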

One may read the TGI as the concentration at which net growth stops. Read a low TGI as more potent growth arrest. As a reminder, the GI50 is the concentration that inhibits growth by half.

With `COC(=O)C(C/C=C(\C)c1ccc(Cl)cc1)C(C)=O` (stereo not given), the TGI with UO-31 renal was 85.4 µM; in the assay with HL-60(TB) leukemia, 38.3 µM; in the assay with MOLT-4 leukemia, 41.2 µM; in the assay with SK-MEL-2 melanoma, 32.9 µM; in the assay on OVCAR-5 ovarian it was > 90.3 µM.
With `CC1CCC2(CC1)NC1=C(CC(C)CC1)C1=C2CC(C)CC1` (stereo not given), the TGI was 51.7 µM in the assay on UO-31 renal; 35.9 µM in the assay with HL-60(TB) leukemia; 40.6 µM with M14 melanoma; > 100 µM with MDA-N; 53 µM in the assay with MOLT-4 leukemia; 47.9 µM with PC-3 prostate. For the same compound, the TGI in the assay with SK-MEL-2 melanoma is 57.8 µM; with MDA-MB-231 breast, 53.9 µM; in the assay with OVCAR-5 ovarian, 57.9 µM.
Regarding `COc1ccc(C2C3CCc4ccccc4C3=NN2S(=O)(=O)c2ccc(/C=C/C(=O)O)cc2)cc1` (stereo not given), the TGI in the assay with UO-31 renal was 38 µM; with HL-60(TB) leukemia, 9.67 µM; in the assay on M14 melanoma it was > 100 µM; with MOLT-4 leukemia it was 25.3 µM; with PC-3 prostate, > 100 µM; in the assay on SK-MEL-2 melanoma, 9.79 µM. In addition, the TGI with MDA-MB-231 breast was > 100 µM; with MDA-MB-435 it was 2.69 µM; with OVCAR-5 ovarian it was > 100 µM.
Consider `O=c1cn[nH]c(=S)n1/N=C/c1c[nH]c2ccccc12`, for which the TGI in the assay with UO-31 renal was > 100 µM; in the assay on HL-60(TB) leukemia it was 49.5 µM; with M14 melanoma, > 100 µM; in the assay with MDA-N it was > 100 µM; in the assay with MOLT-4 leukemia, > 100 µM; with PC-3 prostate, > 100 µM. The TGI in the assay on SK-MEL-2 melanoma, with MDA-MB-435 and in the assay with OVCAR-5 ovarian was > 100 µM each time.
Take `CSc1ncc2c(n1)sc1c(=O)n(-c3ccccc3)cnc12`: the TGI in the assay with UO-31 renal, with M14 melanoma, in the assay on MDA-N, with MOLT-4 leukemia, in the assay on PC-3 prostate and in the assay on SK-MEL-2 melanoma was > 100 µM throughout. Also, the total growth inhibition concentration (TGI) in the assay on MDA-MB-231 breast, in the assay with MDA-MB-435 and with OVCAR-5 ovarian was > 100 µM each time.
With `COc1ccc(C2CC3(c4ccccc4)ON=C(c4ccccc4)N3c3ccccc3S2)cc1` (stereo not given), the concentration for total growth inhibition (TGI) in the assay on UO-31 renal, with M14 melanoma, in the assay on MDA-N, with PC-3 prostate, in the assay with MDA-MB-231 breast and with MDA-MB-435 was > 100 µM throughout. The concentration for total growth inhibition (TGI) in the assay on OVCAR-5 ovarian is > 100 µM.
In the case of `CN1CCN(Cc2ccc(NC(=O)c3cccc(C#Cc4cnc(N)c5ncccc45)c3F)cc2C(F)(F)F)CC1`, the GI50 was 0.849 µM in the assay with UO-31 renal; 1.68 µM in the assay with HL-60(TB) leukemia; 0.59 µM in the assay on M14 melanoma; 0.77 µM in the assay on MOLT-4 leukemia; 2.02 µM in the assay with PC-3 prostate; 0.522 µM with SK-MEL-2 melanoma. In addition, the GI50 with MDA-MB-231 breast is 0.773 µM; with MDA-MB-435 it was 0.789 µM; in the assay on OVCAR-5 ovarian, 0.722 µM. The TGI in the assay on UO-31 renal came to 1.54 µM; with HL-60(TB) leukemia it was 18.7 µM; in the assay on M14 melanoma it was 1.37 µM; with MOLT-4 leukemia, 3.06 µM; in the assay on PC-3 prostate, 9.56 µM; with SK-MEL-2 melanoma it was 1.94 µM. In addition, the TGI in the assay on MDA-MB-231 breast turned out to be 1.75 µM; in the assay with MDA-MB-435, 1.53 µM; in the assay on OVCAR-5 ovarian it was 1.52 µM.
Consider `CC(=O)C1=C(C)N(c2ccc(C)cc2)C2(O)C3=C(C(=O)c4ccccc4C3=O)C(O)=CC12Cl` (stereo not given), for which the TGI in the assay with UO-31 renal is 34.6 µM; in the assay on HL-60(TB) leukemia, > 100 µM; in the assay with M14 melanoma, > 100 µM; in the assay on MOLT-4 leukemia, > 100 µM; in the assay with PC-3 prostate, > 100 µM; in the assay with SK-MEL-2 melanoma it was 33 µM. Moreover, the values for the TGI in the assay on MDA-MB-231 breast, in the assay on MDA-MB-435 and in the assay on OVCAR-5 ovarian were > 100 µM, 14.3 µM and 71.6 µM, respectively.
With `CCCCCC/C=C1\CCC(CN2CCOCC2)C1=O` (stereo not given), the TGI in the assay on UO-31 renal worked out at 27.5 µM; with HL-60(TB) leukemia, 15.7 µM; in the assay on M14 melanoma it was 28.1 µM; in the assay with MOLT-4 leukemia, 18.1 µM; in the assay with SK-MEL-2 melanoma, 33.4 µM; in the assay with OVCAR-5 ovarian it was 37.4 µM.
With `O=C(Nc1cccc2c1[nH]c1c(-c3ccccc3)nccc12)c1ccccc1[N+](=O)[O-]`, the concentration for total growth inhibition (TGI) in the assay with HL-60(TB) leukemia was > 100 µM; in the assay on M14 melanoma it was > 100 µM; in the assay on MOLT-4 leukemia, > 100 µM; with SK-MEL-2 melanoma, > 100 µM; in the assay on OVCAR-5 ovarian it was 63.2 µM.
Turning to `COC(=O)C1=C(C)C=C(N2CCOCC2)C(C(=O)OC)C1c1ccccc1` (stereo not given), the total growth inhibition concentration (TGI) in the assay on UO-31 renal, in the assay on M14 melanoma, with MDA-N, in the assay with MOLT-4 leukemia, in the assay with PC-3 prostate and with SK-MEL-2 melanoma was > 10 µM each time. The TGI in the assay with MDA-MB-231 breast, in the assay with MDA-MB-435 and in the assay on OVCAR-5 ovarian was > 10 µM throughout.
Turning to `COc1ccccc1/C=C1\NC(=S)N(/C=C2\C(=O)Oc3ccccc3C2=O)C1=O`, the TGI was 82.9 µM with UO-31 renal; > 100 µM in the assay on HL-60(TB) leukemia; > 100 µM in the assay with M14 melanoma; 72.6 µM in the assay on MOLT-4 leukemia; > 100 µM with PC-3 prostate; > 100 µM in the assay on SK-MEL-2 melanoma. Further, the TGI with MDA-MB-231 breast, with MDA-MB-435 and in the assay on OVCAR-5 ovarian was > 100 µM in each case.
For `CCOC(=O)c1[nH]cc(C)c1-c1ccc2c(-c3ccccc3)nc3ccccc3n12`, the concentration for total growth inhibition (TGI) turned out to be 14.5 µM in the assay with UO-31 renal; 27.5 µM with M14 melanoma; 14.1 µM in the assay on MDA-N; 9.25 µM with MOLT-4 leukemia; 12.8 µM in the assay on PC-3 prostate; 16.8 µM in the assay on SK-MEL-2 melanoma. The TGI with MDA-MB-231 breast came out at 12.8 µM; with MDA-MB-435, 11.2 µM; with OVCAR-5 ovarian, 64.5 µM.
As for `Fc1ccc(-c2sc(-c3cccs3)cc2Cc2cccs2)cc1`, the concentration for total growth inhibition (TGI) with UO-31 renal, with HL-60(TB) leukemia, in the assay on M14 melanoma, in the assay on MOLT-4 leukemia, in the assay with SK-MEL-2 melanoma and in the assay with MDA-MB-231 breast was > 100 µM throughout. Also, the total growth inhibition concentration (TGI) in the assay on MDA-MB-435 and with OVCAR-5 ovarian was > 100 µM throughout.
For the compound `CSc1nc2c(ncn2C2OCC(O)C(O)C2O)c(=O)n1C` (stereo not given), the total growth inhibition concentration (TGI) in the assay with UO-31 renal, in the assay with HL-60(TB) leukemia, with MOLT-4 leukemia, in the assay with SK-MEL-2 melanoma and in the assay on OVCAR-5 ovarian was > 100 µM throughout.
`CC(=O)OC1COC(N2C(=O)C(=O)c3cc(Br)ccc32)C(OC(C)=O)C1OC(C)=O` (stereo not given): the TGI with UO-31 renal, with M14 melanoma, with MOLT-4 leukemia and with SK-MEL-2 melanoma was > 100 µM throughout.

The record behind these values is PubChem BioAssay (NCI).
